The record followed here is article PMC11510666, “Thiazolidinedione-Conjugated Lupeol Derivatives as Potent Anticancer Agents Through a Mitochondria-Mediated Apoptotic Pathway” (Molecules, 2024).

Test [1] has as its system human hepatocarcinoma HepG2. Put plainly: MTT antiproliferative assay, HepG2. Type of test: cell-based. The note with it: for SI (selectivity index): IC50 values on L02 cells/HepG2 cells; for IC50: MTT, 48 h, mean ± SD, three independent experiments. The procedure:
(§1) These cell lines were cultured in Dulbecco's Modified Eagle Medium containing 10% (v/v) fetal bovine serum (FBS, Wisent) and 1% (v/v) Penicillin-Streptomycin Solution mixture (Beyotime, Shanghai, China) at 37 °C under 5% CO2. An MTT assay evaluated the cytotoxicity of lupeol derivatives toward the A549, MCF-7, HepG2, and LO2 cell lines. The cells were inoculated into 96-well plates (3 × 10^3 cells/well) and cultured for 24 h at 37 °C in 5% CO2. After that, a gradient concentration of the test drug was added to continue the incubation for 48 h. Subsequently, the MTT solution continued to incubate with the cells for 4 h. Afterward, the upper waste layer was discarded, and DMSO was added ([…], Tianjin, China). After the formazan completely dissolved, the absorbance of each well at 490 nm was measured with a microplate reader. The mean values were derived from three independent experiments.
On the technique in general: Tetrazolium assays rely on reduction of a dye to a coloured formazan, in cell work by metabolically active cells.

Test [2] concerns human lung cancer A549. In words: MTT antiproliferative assay, A549. The note with it: 48 h, mean ± SD, three independent experiments. Type of test: cell-based. On the procedure:
as §1

The subject of test [3] is human breast cancer MCF-7. Put plainly: MTT antiproliferative assay, MCF-7. Type of test: cell-based. The note with it: 48 h, mean ± SD, three independent experiments. On the procedure:
as §1

Test [4] deals with human hepatic LO2 cells. The note with it: read-out: IC50 LO2; MTT, 48 h, mean ± SD, three independent experiments. On the procedure: as §1

In the case of `C=C(C)C1CCC2(C)CCC3(C)C(CCC4C5(C)CCC(OC(=O)CN6C(=O)SC(=Cc7cccs7)C6=O)C(C)(C)C5CCC43C)C12` (stereo not shown) [Compound 6h, Lupeol-3-[(1-Ethyl)-2]-5-(2-Thienylmethylene)-2,4-Thiazolidinedione], in test [1], the “SI (selectivity index)” value worked out at 4.55. Also, the IC50 – broadly, the midpoint of a concentration-inhibition curve – in test [1] came to 12.8 ± 0.97 µM; in test [2], 14 ± 1.39 µM; in test [3] it was 11.3 ± 0.85 µM; in test [4], 58.4 ± 0.78 µM.

`C=C(C)C1CCC2(C)CCC3(C)C(CCC4C5(C)CCC(OC(=O)CN6C(=O)SC(=CC(C)C)C6=O)C(C)(C)C5CCC43C)C12` (stereo not shown) [Compound 6i, Lupeol-3-[(1-Ethyl)-2]-5-(2-Methylpropylidene)-2,4-Thiazolidinedione]: in test [1], the “SI (selectivity index)” value is reported as 4.80. Also, the half-maximal inhibitory concentration (IC50) in test [1] is 9.48 ± 0.71 µM; in test [2], 11.3 ± 0.91 µM; in test [3], 8.7 ± 0.12 µM; in test [4], 45.5 ± 1.33 µM.

Take `C=C(C)C1CCC2(C)CCC3(C)C(CCC4C5(C)CCC(OC(=O)N6CCN(C(=O)CN7C(=O)SC(=Cc8ccc(F)cc8)C7=O)CC6)C(C)(C)C5CCC43C)C12` (stereo not shown) [Compound 9a, Lupeol-3-[(1-Piperazinyl)-4]-5-(4-Fluorobenzylidene)-2,4-Thiazolidinedione]: the “SI (selectivity index)” value in test [1] is 3.87. Also, the IC50 in test [1] amounted to 20.5 ± 1.62 µM; in test [2], 18.7 ± 1.25 µM; in test [3], 19.1 ± 1.78 µM; in test [4], 79.1 ± 1.25 µM.

On to `C=C(C)C1CCC2(C)CCC3(C)C(CCC4C5(C)CCC(OC(=O)N6CCN(C(=O)CN7C(=O)SC(=Cc8ccc(Cl)cc8)C7=O)CC6)C(C)(C)C5CCC43C)C12` (stereo not shown) [Compound 9b, Lupeol-3-[(1-Piperazinyl)-4]-5-(4-Chlorobenzylidene)-2,4-Thiazolidinedione], for which the “SI (selectivity index)” value in test [1] amounted to 4.44. Also, the IC50 in test [1] came to 18.1 ± 1.73 µM; in test [2], 15.5 ± 0.64 µM; in test [3] it was 14 ± 0.87 µM; in test [4] it was 80.5 ± 1.79 µM.

Turning to `C=C(C)C1CCC2(C)CCC3(C)C(CCC4C5(C)CCC(OC(=O)N6CCN(C(=O)CN7C(=O)SC(=Cc8ccc(C)cc8)C7=O)CC6)C(C)(C)C5CCC43C)C12` (stereo not shown) [Compound 9c, Lupeol-3-[(1-Piperazinyl)-2]-5-(4-Methylbenzylidene)-2,4-Thiazolidinedione], in test [1], the “SI (selectivity index)” value came out at 4.14. Also, the IC50 in test [1] turned out to be 15.7 ± 1.52 µM; in test [2], 12.7 ± 0.68 µM; in test [3], 16.3 ± 0.76 µM; in test [4] it was 65.1 ± 0.93 µM.

As to `C=C(C)C1CCC2(C)CCC3(C)C(CCC4C5(C)CCC(OC(=O)N6CCN(C(=O)CN7C(=O)SC(=Cc8ccc(C(C)(C)C)cc8)C7=O)CC6)C(C)(C)C5CCC43C)C12` (stereo not shown) [Compound 9d, Lupeol-3-[(1-Piperazinyl)-4]-5-(4-Tert-Butylphenyl)-2,4-Thiazolidinedione], the “SI (selectivity index)” value in test [1] is 4.43. The IC50 in test [1] was 9.52 ± 0.61 µM; in test [2], 11.7 ± 0.75 µM; in test [3], 18.1 ± 1.93 µM; in test [4] it was 42.2 ± 1.28 µM.

Turning to `C=C(C)C1CCC2(C)CCC3(C)C(CCC4C5(C)CCC(OC(=O)N6CCN(C(=O)CN7C(=O)SC(=Cc8ccccc8OC)C7=O)CC6)C(C)(C)C5CCC43C)C12` (stereo not shown) [Compound 9e, Lupeol-3-[(1-Piperazinyl)-4]-5-(2-Methoxybenzylidene)-2,4-Thiazolidinedione], the “SI (selectivity index)” value in test [1] is 3.83. Further, the half-maximal inhibitory concentration (IC50) in test [1] was found to be 16.5 ± 1.26 µM; in test [2], 10.4 ± 0.38 µM; in test [3] it was 18.6 ± 1.27 µM; in test [4] it was 63.3 ± 1.14 µM.

For `C=C(C)C1CCC2(C)CCC3(C)C(CCC4C5(C)CCC(OC(=O)N6CCN(C(=O)CN7C(=O)SC(=Cc8ccc(OC)c(OC)c8OC)C7=O)CC6)C(C)(C)C5CCC43C)C12` (stereo not shown) [Compound 9f, Lupeol-3-[(1-Piperazinyl)-4]-5-(2,3,4-Trimethoxybenzylidene)-2,4-Thiazolidinedione], the “SI (selectivity index)” value in test [1] is given as 5.19. The IC50 was 10.8 ± 0.45 µM in test [1], 9.24 ± 0.48 µM in test [2], 9.19 ± 0.46 µM in test [3] and 56.1 ± 0.77 µM in test [4].

For the compound `C=C(C)C1CCC2(C)CCC3(C)C(CCC4C5(C)CCC(OC(=O)N6CCN(C(=O)CN7C(=O)SC(=Cc8ccco8)C7=O)CC6)C(C)(C)C5CCC43C)C12` (stereo not shown) [Compound 9g, Lupeol-3-[(1-Piperazinyl)-4]-5-(2-Furanylmethylene)-2,4-Thiazolidinedione], in test [1], the “SI (selectivity index)” value is 4.19. For the same compound, the IC50 in test [1] worked out at 15 ± 0.74 µM; in test [2], 9.91 ± 0.42 µM; in test [3], 12 ± 0.75 µM; in test [4], 62.77 ± 0.62 µM.

As to `C=C(C)C1CCC2(C)CCC3(C)C(CCC4C5(C)CCC(OC(=O)N6CCN(C(=O)CN7C(=O)SC(=Cc8cccs8)C7=O)CC6)C(C)(C)C5CCC43C)C12` (stereo not shown) [Compound 9h, Lupeol-3-[(1-Piperazinyl)-4]-5-(2-Thienylmethylene)-2,4-Thiazolidinedione], the “SI (selectivity index)” value in test [1] amounted to 4.50. The IC50 was found to be 15.3 ± 0.98 µM in test [1], 16.4 ± 1.69 µM in test [2], 13.8 ± 0.58 µM in test [3] and 68.9 ± 1.19 µM in test [4].

As to `C=C(C)C1CCC2(C)CCC3(C)C(CCC4C5(C)CCC(OC(=O)N6CCN(C(=O)CN7C(=O)SC(=CC(C)C)C7=O)CC6)C(C)(C)C5CCC43C)C12` (stereo not shown) [Compound 9i, Lupeol-3-[(1-Piperazinyl)-4]-5-(2-Methylpropylidene)-2,4-Thiazolidinedione], the “SI (selectivity index)” value in test [1] was 5.12. Besides, the IC50 in test [1] stood at 6.91 ± 0.31 µM; in test [2] it was 13.8 ± 0.84 µM; in test [3], 20.1 ± 1.59 µM; in test [4], 35.4 ± 0.72 µM.

In the case of `C=C(C)C1CCC2(C)CCC3(C)C(CCC4C5(C)CCC(OC(=O)NCCNC(=O)CN6C(=O)SC(=Cc7ccc(F)cc7)C6=O)C(C)(C)C5CCC43C)C12` (stereo not shown) [Compound 12a, Lupeol-3-[(1-Ethylenediaminyl)-4]-5-(4-Fluorobenzylidene)-2,4-Thiazolidinedione], the “SI (selectivity index)” value in test [1] worked out at 4.30. Also, the IC50 came to 16.5 ± 0.54 µM in test [1], 10.5 ± 0.56 µM in test [2], 16.8 ± 1.29 µM in test [3] and 71.03 ± 0.57 µM in test [4].

In the case of `C=C(C)C1CCC2(C)CCC3(C)C(CCC4C5(C)CCC(OC(=O)NCCNC(=O)CN6C(=O)SC(=Cc7ccc(Cl)cc7)C6=O)C(C)(C)C5CCC43C)C12` (stereo not shown) [Compound 12b, Lupeol-3-[(1-Ethylenediaminyl)-4]-5-(4-Chlorobenzylidene)-2,4-Thiazolidinedione], in test [1], the “SI (selectivity index)” value is 4.35. Moreover, the IC50 in test [1] was 17.7 ± 0.79 µM; in test [2] it was 17.1 ± 1.28 µM; in test [3], 19.1 ± 1.63 µM; in test [4], 76.87 ± 0.69 µM.

Regarding `C=C(C)C1CCC2(C)CCC3(C)C(CCC4C5(C)CCC(OC(=O)NCCNC(=O)CN6C(=O)SC(=Cc7ccc(C)cc7)C6=O)C(C)(C)C5CCC43C)C12` (stereo not shown) [Compound 12c, Lupeol-3-[(1-Ethylenediaminyl)-2]-5-(4-Methylbenzylidene)-2,4-Thiazolidinedione], the “SI (selectivity index)” value in test [1] was 3.79. Also, the half-maximal inhibitory concentration (IC50) in test [1] came out at 10.7 ± 0.12 µM; in test [2] it was 13.4 ± 0.79 µM; in test [3], 14.3 ± 0.78 µM; in test [4] it was 40.68 ± 0.31 µM.

As to `C=C(C)C1CCC2(C)CCC3(C)C(CCC4C5(C)CCC(OC(=O)NCCNC(=O)CN6C(=O)SC(=Cc7ccc(C(C)(C)C)cc7)C6=O)C(C)(C)C5CCC43C)C12` (stereo not shown) [Compound 12d, Lupeol-3-[(1-Ethylenediaminyl)-4]-5-(4-Tert-Butylphenyl)-2,4-Thiazolidinedione], the “SI (selectivity index)” value in test [1] turned out to be 3.80. For the same compound, the IC50 worked out at 15.8 ± 0.68 µM in test [1], 16.4 ± 0.43 µM in test [2], 9.12 ± 0.24 µM in test [3] and 59.9 ± 1.03 µM in test [4].

On to `C=C(C)C1CCC2(C)CCC3(C)C(CCC4C5(C)CCC(OC(=O)NCCNC(=O)CN6C(=O)SC(=Cc7ccccc7OC)C6=O)C(C)(C)C5CCC43C)C12` (stereo not shown) [Compound 12e, Lupeol-3-[(1-Ethylenediaminyl)-4]-5-(2-Methoxybenzylidene)-2,4-Thiazolidinedione], for which, in test [1], the “SI (selectivity index)” value worked out at 4.46. For the same compound, the IC50 worked out at 12.9 ± 0.52 µM in test [1], 13.8 ± 0.76 µM in test [2], 14.4 ± 0.72 µM in test [3] and 57.7 ± 1.14 µM in test [4].

As for `C=C(C)C1CCC2(C)CCC3(C)C(CCC4C5(C)CCC(OC(=O)NCCNC(=O)CN6C(=O)SC(=Cc7ccc(OC)c(OC)c7OC)C6=O)C(C)(C)C5CCC43C)C12` (stereo not shown) [Compound 12f, Lupeol-3-[(1-Ethylenediaminyl)-4]-5-(2,3,4-Trimethoxybenzylidene)-2,4-Thiazolidinedione], the “SI (selectivity index)” value in test [1] stood at 3.77. For the same compound, the IC50 in test [1] was determined as 9.43 ± 0.78 µM; in test [2] it was 9.68 ± 0.52 µM; in test [3], 10 ± 0.22 µM; in test [4] it was 35.53 ± 0.34 µM.

With `C=C(C)C1CCC2(C)CCC3(C)C(CCC4C5(C)CCC(OC(=O)NCCNC(=O)CN6C(=O)SC(=Cc7ccco7)C6=O)C(C)(C)C5CCC43C)C12` (stereo not shown) [Compound 12g, Lupeol-3-[(1-Ethylenediaminyl)-4]-5-(2-Furanylmethylene)-2,4-Thiazolidinedione], the “SI (selectivity index)” value in test [1] is on record as 4.42. Further, the IC50 is 14.3 ± 0.56 µM in test [1], 15.7 ± 1.42 µM in test [2], 16.4 ± 0.87 µM in test [3] and 63.2 ± 1.31 µM in test [4].

Regarding `C=C(C)C1CCC2(C)CCC3(C)C(CCC4C5(C)CCC(OC(=O)NCCNC(=O)CN6C(=O)SC(=Cc7cccs7)C6=O)C(C)(C)C5CCC43C)C12` (stereo not shown) [Compound 12h, Lupeol-3-[(1-Ethylenediaminyl)-4]-5-(2-Thienylmethylene)-2,4-Thiazolidinedione], the IC50 in test [1] is 18.6 ± 1.49 µM; in test [2], 13.4 ± 1.08 µM; in test [3], 17.3 ± 1.28 µM; in test [4] it was 77.5 ± 1.27 µM.
